System: HepaRG
Assay: LDH release cytotoxicity, % of total lysis control; higher = more cytotoxic
Conditions: 48 h
Outline: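 The CytoTox-ONE kit was used to read LDH in 50 µL spent medium as resorufin fluorescence on a Tecan Safire, with 0.1% Triton X added to total lysis wells. Beforehand, single-lot HepaRG cells on collagen I-coated 96-well plates had been exposed in duplicate for 48 h to eight-point half-log series (top 100 µM) in serum-free induction medium containing 0.5% DMSO. Percent cytotoxicity was normalized against on-plate vehicle and total lysis controls and averaged over duplicates.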

ClC1=C(Cl)C2(Cl)C3C4CC(C5OC45)C3C1(Cl)C2(Cl)Cl (centres undefined) [Endrin]
Conditions	LDH release cytotoxicity [%]
0.03162 µM	-0.958
0.1 µM	-0.149
0.3162278 µM	-0.591
1 µM	-0.635
3.16228 µM	-0.591
10 µM	-0.724
31.6228 µM	0.152
100 µM	6.26

Nc1nc2nc[nH]c2c(=S)[nH]1 [6-Thioguanine]
Conditions	LDH release cytotoxicity [%]
0.031623 µM	1.04
0.1 µM	-2.6
0.316228 µM	-2.87
1 µM	-2.88
3.16228 µM	-2.5
10 µM	-2.64
31.6228 µM	-1.86
100 µM	-0.0388

CC(C)CCCCCCOC(=O)c1ccc(C(=O)OCCCCCCC(C)C)c(C(=O)OCCCCCCC(C)C)c1 [Triisononyl trimellitate]
Conditions	LDH release cytotoxicity [%]
0.031623 µM	-0.391
0.1 µM	-0.474
0.316228 µM	-1.59
1 µM	-2.21
3.16228 µM	-2.67
10 µM	-1.83
31.6228 µM	-0.993
100 µM	0.476

CCCCCCCCOC(=O)CCCCCCCCC(=O)OCCCCCCCC [Dioctyl sebacate]
Conditions	LDH release cytotoxicity [%]
0.03162 µM	-0.979
0.1 µM	-1.87
0.3162278 µM	-1.9
1 µM	-1.13
3.16228 µM	-1.59
10 µM	-0.887
31.6228 µM	5.14
100 µM	68.74

c1ccc2[nH]c(-c3cscn3)nc2c1 [Thiabendazole]
Conditions	LDH release cytotoxicity [%]
0.03162 µM	-1.05
0.1 µM	-0.974
0.3162278 µM	-1.37
1 µM	-1.6
3.16228 µM	-1.13
10 µM	-0.856
31.6228 µM	0.392
100 µM	5.7

CCCCC(CC)COC(=O)c1ccccc1C(=O)OCC(CC)CCCC (centres undefined) [Di(2-ethylhexyl) phthalate]
Conditions	LDH release cytotoxicity [%]
0.01581 µM	-1.27
0.05 µM	-1.74
0.1581139 µM	-1.47
0.5 µM	-0.91
1.5811388 µM	-1.48
5 µM	-1.76
15.8114 µM	-0.407
50 µM	-0.778

Oc1cccc2cccnc12 [8-Hydroxyquinoline]
Conditions	LDH release cytotoxicity [%]
0.03162 µM	-1.07
0.1 µM	-1.23
0.3162278 µM	-1.16
1 µM	-1.2
3.16228 µM	-1.01
10 µM	-0.111
31.6228 µM	0.218
100 µM	2.33

C=CCC1=C(C)C(OC(=O)C2C(C=C(C)C)C2(C)C)CC1=O (centres undefined) [Allethrin]
Conditions	LDH release cytotoxicity [%]
0.03162 µM	0.254
0.1 µM	-0.919
0.3162278 µM	-1.19
1 µM	-0.231
3.16228 µM	-1.87
10 µM	-1.69
31.6228 µM	-0.447
100 µM	-0.904

CCCc1ccccc1 [Propylbenzene]
Conditions	LDH release cytotoxicity [%]
0.03162 µM	0.0897
0.1 µM	0.202
0.3162278 µM	-0.202
1 µM	-0.857
3.16228 µM	0.305
10 µM	-0.0719
31.6228 µM	1.09
100 µM	0.766

O=CCCCC=O [Glutaraldehyde]
Conditions	LDH release cytotoxicity [%]
0.03162 µM	-0.884
0.1 µM	-1.62
0.3162278 µM	-1.72
1 µM	-1.74
3.16228 µM	-1.11
10 µM	-0.663
31.6228 µM	-1.18
100 µM	0.174

O=C(NC(Cc1ccccc1)C(O)C(=O)N1CC(O)C(O)C1)c1cc2cc(Cl)ccc2[nH]1 (centres undefined) [Ingliforib]
Conditions	LDH release cytotoxicity [%]
0.03162 µM	-1.12
0.1 µM	-2
0.3162278 µM	-1.41
1 µM	-0.89
3.16228 µM	-0.718
10 µM	-0.896
31.6228 µM	-1.06
100 µM	8.47

COP(=O)(OC)OC(Br)C(Cl)(Cl)Br (centres undefined) [Naled]
Conditions	LDH release cytotoxicity [%]
0.03162 µM	-2.18
0.1 µM	-1.58
0.3162278 µM	-1.53
1 µM	-2.25
3.16228 µM	-0.95
10 µM	-1.19
31.6228 µM	-0.943
100 µM	-0.896

Cc1ccc([N+](=O)[O-])cc1 [4-Nitrotoluene]
Conditions	LDH release cytotoxicity [%]
0.03162 µM	-0.445
0.1 µM	-1.19
0.3162278 µM	-0.0775
1 µM	-0.642
3.16228 µM	-0.56
10 µM	-0.236
31.6228 µM	-0.713
100 µM	1.62

CS(=O)(=O)c1cc(C(F)(F)F)ccc1C(=O)c1cnoc1C1CC1 [Isoxaflutole]
Conditions	LDH release cytotoxicity [%]
0.03162 µM	-0.368
0.1 µM	-1.2
0.3162278 µM	-2.1
1 µM	-1.58
3.16228 µM	-0.928
10 µM	-0.455
31.6228 µM	-0.687
100 µM	0.934

COCC(C)OCC(C)O (centres undefined) [Dipropylene glycol monomethyl ether]
Conditions	LDH release cytotoxicity [%]
0.03162 µM	-1.67
0.1 µM	-1.92
0.3162278 µM	-1.46
1 µM	-1.8
3.16228 µM	-1.39
10 µM	-0.852
31.6228 µM	0.852
100 µM	0.163

CC(=O)OCC1OC(OC2(COC(C)=O)OC(COC(C)=O)C(OC(C)=O)C2OC(C)=O)C(OC(C)=O)C(OC(C)=O)C1OC(C)=O (centres undefined) [Sucrose octaacetate]
Conditions	LDH release cytotoxicity [%]
0.0238752 µM	-0.662
0.0755 µM	-0.298
0.238752 µM	-0.188
0.755 µM	-1.45
2.38752 µM	-0.463
7.55 µM	-0.261
23.8752 µM	-0.0769
75.5 µM	1.89

O=C(NC(=O)c1c(F)cccc1F)Nc1ccc(OC(F)(F)C(F)OC(F)(F)F)c(Cl)c1 (centres undefined) [Novaluron]
Conditions	LDH release cytotoxicity [%]
0.031623 µM	-0.704
0.1 µM	-3.48
0.316228 µM	-3.95
1 µM	-4.4
3.16228 µM	-3.9
10 µM	-4.16
31.6228 µM	-1.88
100 µM	4.68

N=C(Nc1ccccc1)Nc1ccccc1 [1,3-Diphenylguanidine]
Conditions	LDH release cytotoxicity [%]
0.03162 µM	-0.803
0.1 µM	-2.15
0.3162278 µM	-1.51
1 µM	-1.87
3.16228 µM	-1.59
10 µM	-1.1
31.6228 µM	-1.1
100 µM	0.505

Source: the supplement of paper PMC7840683
